The nature of data set [1]: Plasma level after administration in the formalin experiments. Conditions: plasma level 1.5 h after compound administration, i.p., rat. In kind it is in vivo.
In data set [2] the test system is rat dorsal root ganglion neurons. As to the kind of experiment: Patch clamp (current clamp) of acid-induced action potential generation in rat dorsal root ganglion neurons in primary culture. In kind it is cell-based. Conditions: 1 μM, current-clamp mode, n=3. The method, then: The acid-evoked action potentials were recorded in the presence and absence of Compound A (1 μM) or Compound H (1 μM) using the whole cell configuration of the patch clamp method (current clamp mode).
Sensory neurons can be isolated and cultured in vitro from different animal species. The most widely used protocols use sensory neurons isolated from neonatal (Eckert, et al. (1997) J Neurosci Methods 77:183-190) and embryonic (Vasko, et al. (1994) J Neurosci 14:4987-4997) rat. […] Electrophysiology is performed similarly as described above in Example 2. […] In the current-clamp mode, change in the trans-membrane potential are recorded. Under acidic conditions (e.g., pH 6.5) the membrane depolarizes, leading to the firing of action potentials, as shown in FIGS. 7A and 7B.
(In general: In patch-clamp work, channel activity is measured electrically.)

Data set [3] deals with CFA-induced thermal hyperalgesia. The data set can be described thus: CFA model, thermal hyperalgesia (Hargreaves plantar test). It counts as in vivo, rat. Conditions: CFA 48 h prior. The method, then: Assessment of thermal hyperalgesia: Baseline and post-treatment withdrawal latencies to a noxious thermal stimulus were measured according to Hargreaves (Hargreaves et al., 1988) using a plantar test analgesia meter (IITC, Woodland Hills, Calif., model # 336). The stimulus intensity was set at 30% of maximum output and the cut-off time was set at 30 seconds. Rats were placed on a glass plate warmed to 28° C. and allowed to habituate to the testing chambers for a minimum of 15 minutes prior to each testing session. The thermal stimulus was applied to the plantar surface of the paw, and the mean latency of three readings on each paw was used as the latency value for each time point. Thermal thresholds were defined as the latency in seconds to the first pain behavior, which includes nocifensive paw withdrawal, flinching, biting and/or licking of the stimulated paw. The mean and standard error of the mean (SEM) were determined for the injured and normal paws for each treatment group.
For comparison, results with morphine (6 mg/kg sc) and indomethacin (30 mg/kg po) are shown. […] Data are expressed as mean±SEM, (n=10). **P<0.01, vs. baseline.

In another data set the target is T1, hASIC1a (Homo sapiens, UniProt P78348).
T1 sequence (P78348 1-528): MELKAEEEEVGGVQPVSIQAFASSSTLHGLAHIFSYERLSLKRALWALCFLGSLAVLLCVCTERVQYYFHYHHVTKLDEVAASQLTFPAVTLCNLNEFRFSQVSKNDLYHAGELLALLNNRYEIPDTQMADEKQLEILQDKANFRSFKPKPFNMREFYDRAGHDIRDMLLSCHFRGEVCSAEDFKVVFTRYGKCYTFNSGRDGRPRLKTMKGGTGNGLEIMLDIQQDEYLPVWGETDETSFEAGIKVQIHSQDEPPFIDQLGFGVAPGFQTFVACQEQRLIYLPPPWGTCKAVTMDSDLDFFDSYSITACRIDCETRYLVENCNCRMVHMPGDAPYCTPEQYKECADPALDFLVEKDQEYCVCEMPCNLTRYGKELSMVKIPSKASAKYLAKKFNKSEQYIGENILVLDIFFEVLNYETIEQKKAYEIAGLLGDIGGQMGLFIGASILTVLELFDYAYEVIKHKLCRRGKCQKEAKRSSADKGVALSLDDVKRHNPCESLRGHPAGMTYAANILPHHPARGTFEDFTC
The data set can be described thus: Whole-cell patch clamp of HEK293 cells expressing homomeric hASIC1a. It counts as cell-based. Also noted: expressed in transfected cells; host or cells: HEK293. Particulars: 10 μM, HEK293, -60 mV, pH 7.4 to pH 6.5 for 5 sec, n=3. The method, then:
HEK293 cells were transfected either with hASIC1a alone or co-transfected with hASIC1a and hASIC3. Acid-induced inward currents were recorded in the presence and absence of compound A (10 μM) using the whole-cell configuration of the patch-clamp method (voltage clamp mode).
All experiments are performed at room temperature (20-25° C.) in voltage clamp using conventional whole cell patch clamp methods (Neher, E., et al. (1978) Pfluegers Arch 375:219-228).
Coverslips with the cells are transferred to a 15 μl experimental chamber mounted on the stage of an inverted microscope (IMT-2, Olympus) supplied with Nomarski optics. […] The cells are held at a holding voltage of −60 mV and at the start of each experiment the current is continuously measured for 45 s to ensure a stable baseline. […] Current amplitudes are measured at the peak of the responses, and effect of the compounds is calculated as the amplitude at compound equilibrium divided by the amplitude of the current evoked by the pulse just before the compound was included. […]
FIGS. 4A and 4B show response to acidic saline in the absence or presence of 10 μM of Compound A recorded from HEK293 cells expressing either hASIC1a alone or HEK293 cells co-expressing hASIC1a and hASIC3 [voltage clamped at −60 mV, extracellular solution surrounding cells was changed rapidly from pH 7.4 to pH 6.5 for 5 sec] […]

One may read the ED50 as the dose that gives a 50% effect, or the effect in half of the subjects. For the compound `COc1ccc(F)cc1-c1cc2c(c3c1CCN(C)C3)NC(=O)/C2=N/O` [Compound A, 5-(5-fluoro-2-methoxyphenyl)-6,7,8,9-tetrahydro-3-(hydroxyimino)-8-methyl-1H-pyrrolo[3,2-h]isoquinoline-2(3H)-one], the “relationship between dose and plasma level” value in data set [1] is “linear relationship between dose and plasma exposure”. The “effect on acid-induced membrane depolarization and action potential firing” value in data set [2] is “inhibit the acid-induced membrane depolarization and reduces the ensuing rate of action potential firing”. Further, the “reversal of CFA-induced thermal hyperalgesia” value in data set [3] (3 h after i.p. administration, dose-dependent) was “fully reversing the thermal hyperalgesia”. Also, the median effective dose (ED50) in data set [3] (Rattus norvegicus, ip, measured 3 h after i.p. administration, n=10, read-out: ED50, reversal of CFA-induced thermal hyperalgesia) was 6.5 mg/kg. The “effect on acid-induced inward current, hASIC1a alone” value on hASIC1a is “effectively modulates the activity”.

Consider `CCN1CCc2c(-c3ccccc3)cc3c(c2C1)NC(=O)/C3=N/O` [Compound H, 5-phenyl-6,7,8,9-tetrahydro-3-(hydroxyimino)-8-ethyl-1H-pyrrolo[3,2-h]isoquinoline-2(3H)-one], for which the “effect on acid-induced membrane depolarization and action potential firing” value in data set [2] is “inhibit the acid-induced membrane depolarization and reduces the ensuing rate of action potential firing”.

Values taken from US7718641B2, “Pyrrolo [3,4-H] isoquinoline compounds and methods for modulating gated ion channels” (Aros Pharma ApS, priority 2005, dated 2010).
